According to PMC10033538, “Analysis of 2′-hydroxyflavanone (2HF) in mouse whole blood by HPLC–MS/MS for the determination of pharmacokinetic parameters” (Frontiers in Chemistry, 2023):
Read-outs that look alike come from different tables or passages of the source. One block for each compound: values may come before it.

Experiments:
tumor growth = test system: tumor growth; set-up: method as in earlier work; settings: single oral doses of 100 mg/kg/day or 25, 50 and 100 mg/kg every other day, ref Yue et al., 2020, Nagaprashantha et al., 2011, Singhal et al., 2018a, 2018b; cited from earlier work
[1] = Stability of 2HF in mouse blood (short-term, postpreparative, freeze-thaw, long-term); type: in vitro ADME, BALB/c mouse; settings: for Deviation, short term stability / Mean concentration, short term stability: +22.0 °C; for Deviation, short term stability / Mean concentration, short term stability / Deviation, freeze-thaw stability / Mean concentration, freeze-thaw stability / Deviation, long-term stability / Mean concentration, long-term stability / Deviation, postpreparative stability / Mean concentration, postpreparative stability: n = 8; for Deviation, freeze-thaw stability / Mean concentration, freeze-thaw stability / Deviation, long-term stability / Mean concentration, long-term stability: −70.0 °C; for Deviation, freeze-thaw stability / Mean concentration, freeze-thaw stability: 6 cycles; for Deviation, postpreparative stability / Mean concentration, postpreparative stability: processed mouse blood sample, +10.0 °C
Experimental: Stability studies were initiated and completed before analyzing the studied samples. The stability in the biological matrix was evaluated through freezing and thawing cycles, short-term and long-term stability, and postpreparative. All tests were performed with eight replicates for each sample concentration level. To carry out the stability tests, an initial quantification test (TQI) was performed in accordance with local regulatory norms that aim to guarantee good practices through quality standards. In this test, samples of LQC […] and HQC […] were analyzed, in which the concentration was determined by utilizing a freshly prepared calibration curve. The number of replicates that were analyzed in each control was the same as that used in the stability tests. Freeze–thaw cycle temperatures are presented in Supplementary Table S4.
The stability of 2HF in BALB/c mouse blood was evaluated using short-term tests at 22 °C, postprocessing stability at +10 °C, stability in freeze–thaw cycles (n = 06 cycles) and long-term stability with the samples stored at −70 °C. In these assays, the quality controls of low and high concentrations, LQC: 3.00 ng/mL and HQC: 200.00 ng/mL, were used.

Leishmania amazonensis [2] = settings: ref Gervazoni et al., cited from earlier work; for In vivo effects in cutaneous leishmaniasis model: single oral dose/day, 2020
[3] = Oral pharmacokinetic study of 2HF in BALB/c mouse blood (HPLC-MS/MS, non-compartmental analysis); type: in vivo; settings: BALB/c mice, single oral dose 10 mg/kg, whole blood
Experimental: BALB/c mice, with six mice per group, received a single dose of 10 mg/kg 2HF that was solubilized in DMSO (2%) and suspended in Ora-plus® (Perrigo, Minneapolis, MN, United States). ORA-Plus is an aqueous-based vehicle consisting of suspending agents that have a high degree of colloidal activity, facilitating the process involved in the extemporaneous compounding of oral suspensions. Ora-Plus contains purified water, microcrystalline cellulose, sodium carboxymethylcellulose, xanthan gum, and carrageenan as suspending agents; calcium sulfate, sodium phosphate, and citric acid as buffering agents; simethicone as an antifoaming agent; and potassium sorbate and methylparaben as preservatives, as described in the datasheet. The doses were administered orally using a gavage needle.
Mouse blood (300 µL) was collected via the orbital plexus, one mouse per time, with six replicates (6 mice per time interval). For anesthesia, an ophthalmic solution of tetracaine hydrochloride (1%) and phenylephrine hydrochloride (0,1%) was used, and one drop was administered in the chosen orbital 5 min before collection. The collection was performed with […] Pasteur pipettes that were previously autoclaved, and blood was transferred to 1.5 mL microtubes that were also heparinized. The time intervals determined were 2.5, 5, 7.5, 10, 15, 30, 45, 60, 90, 120, and 240 min after administration of the compound. After collecting all samples, 2HF was extracted as described above.
The pharmacokinetic parameters were obtained by non-compartmental analysis (NCA) using the Phoenix WinNonlin® 8.1 program (CERTARA). The maximum blood peak concentration (Cmax) and time to peak concentration (Tmax) were obtained directly from the blood concentration-time profiles. The area under the concentration-time curve from time zero to time t (AUC0–t) was obtained using the trapezoidal method. The area under the total blood concentration-time curve from time zero to infinity (AUC0–∞) was calculated using Eq. 4 as follows: AUC0–∞=AUC0–t+Clast÷kel (4) where Clast is the concentration observed at the last time, and kel is the apparent elimination rate constant obtained from the terminal slope of the blood concentration-time curve after logarithmic transformation of the blood concentrations and application of linear regression.
The blood elimination half-life (t1/2) was calculated using Eq. 5 as follows: t1/2=ln2÷kel (5)
Apparent oral clearance (CL/F) and apparent volume of distribution (Vd/F) parameters were obtained from the blood concentrations and expressed normalized to bioavailability (F) because only oral data are available.

Leishmania amazonensis [4] = test system: Leishmania amazonensis; set-up: method as in Gervazoni et al., 2018; settings: in vitro; ref Gervazoni et al., 2018; cited from earlier work
[5] = rat plasma, cited from earlier work
[6] = ref Gervazoni et al., 2020; cited from earlier work
[7] = set-up: method as in Teng et al., 2012; settings: ref Teng et al., 2012; cited from earlier work
[8] = orally administered to rats; ref Yang et al., 2019a; cited from earlier work
[9] = set-up: method as in Yang et al., 2019b; settings: rats, 10 mg/kg oral dose; ref Yang et al., 2019b; cited from earlier work
[10] = mouse blood, HQC nominal 200.00 ng/mL
[11] = mouse blood, LQC nominal 3.00 ng/mL
[12] = sensitive and cutaneous murine model, 2018
[13] = oral single dose 100 mg/kg, ref Zhao et al., 2020

Deviations in stability tests ([1]; biological matrix, freezing and thawing, short duration, postprocessing and long duration): less than 15%
Deviation, short term stability [1, 10]: 7.53%
Mean concentration, short term stability [1, 10]: 215.06 ng/mL
Deviation, short term stability [1, 11]: 4.59%
Mean concentration, short term stability [1, 11]: 3.14 ng/mL
Degradation in the biological matrix ([1]; mouse blood, all stability tests performed): no significant degradation
Deviation, freeze-thaw stability [1, 10]: 4.68%
Mean concentration, freeze-thaw stability [1, 10]: 209.37 ng/mL
Deviation, freeze-thaw stability [1, 11]: 1.61%
Mean concentration, freeze-thaw stability [1, 11]: 3.05 ng/mL
Deviation, long-term stability [1, 10]: 5.42%
Mean concentration, long-term stability [1, 10]: 210.83 ng/mL
Deviation, long-term stability [1, 11]: −1.33%
Mean concentration, long-term stability [1, 11]: 2.96 ng/mL
Deviation, postpreparative stability ([1]; HQC nominal 200.00 ng/mL): 11.08%
Mean concentration, postpreparative stability ([1]; HQC nominal 200.00 ng/mL): 222.16 ng/mL
Deviation, postpreparative stability ([1]; LQC nominal 3.00 ng/mL): 10.11%
Mean concentration, postpreparative stability ([1]; LQC nominal 3.00 ng/mL): 3.30 ng/mL
AUC0-inf [3]: 5,524.54 min x ng/mL
AUC % extrap [3]: 7.30%
Cl/F, total blood clearance [3]: 18.10 mL/min
Tmax, time to reach Cmax [3]: 5 min
AUC0-t ([3]; trapezoidal method): 5,120.98 min x ng/mL
k el ([3]; mouse, NCA, read-out: Kel, elimination rate constant (converted)): 0.000118 s⁻¹
half-life ([3]; mouse, NCA, read-out: T1/2, elimination half-time): 1.63 h
Cmax ([3]; mouse, read-out: Cmax, maximum concentration): 186 ng/mL
Vd/F ([3]; mouse, read-out: Vd/F, volume of distribution): 2.55 L
SMILES: O=C1CC(c2ccccc2O)Oc2ccccc21 (centres unmarked) [2HF, 2′-Hydroxyflavanone]
Tumor growth (tumor growth): inhibited different types of tumor growth
In vivo activity in experimental model of cutaneous leishmaniasis (Leishmania amazonensis [2]; daily doses of 50 mg/kg for 35 days, 2018): significant effect
Lesion size (Leishmania amazonensis [2]; [12]): decrease the lesion size
Parasitic load (Leishmania amazonensis [2]; [12]): almost cease the parasitic load
Inhibition of promastigote and amastigote forms (Leishmania amazonensis [4]): inhibit both the promastigote and amastigote forms

SMILES: COc1cc(O)cc(O)c1C(=O)/C=C/c1ccccc1 [Cardamonin]
Tmax ([5]; oral single dose 5 mg/kg, ref Jaiswal et al., 2017): 0.50 h

SMILES: O=C(CCc1ccc(O)cc1)c1c(O)cc(O)cc1O [Phloretin]
T1/2 [5, 13]: 2.83 h
Tmax [5, 13]: 1.25 h

SMILES: O=c1cc(-c2ccc(O)cc2)oc2cc(O)cc(O)c12 [apigenin]
In vivo effects in cutaneous leishmaniasis model (Leishmania amazonensis [2]): promising in vivo effects
T1/2 [6]: less than 192 min
Cmax [7]: 42 ng/mL
T1/2 [7]: 2.11 h
Tmax [7]: 0.50 h

SMILES: O=C1c2c(O)cc(O)cc2O[C@H](c2cc(O)c(O)c(O)c2)[C@H]1O [dihydromyricetin]
T1/2 [8]: 3.04 h
Tmax [8]: 0.57 h

SMILES: O=C1c2c(O)cc(O)cc2O[C@H](c2ccc(O)c(O)c2)[C@H]1O [dihydroquercetin]
T1/2 [8]: 2.32 h
Tmax [8]: 0.28 h

SMILES: COc1cc(O)c(C(=O)/C=C/c2ccccc2)c(OC)c1 [flavokavain B]
Cmax [9]: 265.2 ng/mL
T1/2 [9]: 2.76 h
Time of Cmax [9]: 1 h

SMILES: O=c1c(O)c(-c2cc(O)c(O)c(O)c2)oc2cc(O)cc(O)c12 [myricetin]
T1/2 [8]: 2.46 h
Tmax [8]: 0.22 h

SMILES: O=c1c(O)c(-c2ccc(O)c(O)c2)oc2cc(O)cc(O)c12 [quercetin]
In vivo effects in cutaneous leishmaniasis model (Leishmania amazonensis [2]): promising in vivo effects
T1/2 [6]: less than 192 min
T1/2 [8]: 3.00 h
Tmax [8]: 0.25 h
